From article PMC3458005, “Involvement of the Azotobacter vinelandii Rhodanese-Like Protein RhdA in the Glutathione Regeneration Pathway” (PLoS ONE, 2012)

Assays:
RhdA = biological target: T1, RhdA (Azotobacter vinelandii, UniProt P52197); assay: intrinsic tryptophan fluorescence titration; format: binding
T1 construct: His-tagged (pQER1) from E. coli BL21[pRep4], Ni-NTA purified; cyanide-treated (sulfane sulfur-deprived); only cysteine Cys230

[1] = test system: N[C@@H](CCC(=O)N[C@@H](C[S])C(=O)NCC(=O)O)C(=O)O; assay: purified protein; settings: pH 7.4; 25.0 °C

T1 sequence (P52197 whole entry): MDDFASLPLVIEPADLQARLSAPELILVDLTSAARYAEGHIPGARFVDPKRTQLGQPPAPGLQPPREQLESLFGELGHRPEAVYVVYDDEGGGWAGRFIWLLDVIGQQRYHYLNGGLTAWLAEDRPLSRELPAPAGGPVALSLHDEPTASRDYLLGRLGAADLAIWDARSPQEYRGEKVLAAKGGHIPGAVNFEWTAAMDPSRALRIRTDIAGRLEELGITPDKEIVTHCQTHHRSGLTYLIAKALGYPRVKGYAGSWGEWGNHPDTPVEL

Compound	Kd (RhdA) [µM]	Km [1] [µM]
N[C@@H](CCC(=O)N[C@@H](C[S])C(=O)NCC(=O)O)C(=O)O [GS^•, glutathione thiyl radical]	~11	
O=S(O)(O)=S [thiosulfate]	0.76 ± 0.01	
RhdA (Azotobacter vinelandii)		560 ± 110
